# Assay results reported in US5157052A, “Method for inhibiting IgE production” (priority 1990, dated 1992).
# Columns and labels:
# [1] = test system: IgE; assay: Serum IgE response induced by FF1-4D5 + H∂A1 anti-IgD antibodies (ELISA, Assay A / Assay F); type: in vivo, mouse (Balb/c female); conditions: for IgE ± SD: Table 9, 20 μg IP days 3 and 4
# How it was run: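 Transient IgE response induced in female Balb/c mice (10–20 weeks) by a day-0 i.v. or s.c. injection of 100 μg each of anti-IgD FF1-4D5 and H.δA1. Serum IgE measured by sandwich ELISA (B1E3 capture, biotinylated R1E4 detection, avidin-biotin-HRP/ABTS), quantified against an IgE standard curve corrected for serum dilution.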
# [2] = test system: IgE; assay: ED50 for inhibition of IgE calculated from the examples; type: in vivo, mouse; conditions: dose to achieve 50% inhibition of IgE
# Experimental: From the data in the above examples, the effective dose of each prostaglandin to achieve 50% inhibition of IgE (ED50) was calculated.
# [3] = Diarrheal effects in rats; conditions: rat, in vivo, po
smiles,measurement,setting,value
"CCCCC(C)(O)C/C=C/[C@H]1[C@H](O)CC(=O)[C@@H]1C/C=C\CCCC(=O)OC (mixture of isomers) [(±) methyl 11α,16-dihydroxy-16-methyl-9-oxoprosta-5Z,13E-dien-1-oate]",optimal day of administration for inhibition of IgE,[1]; 5 μg IP,IgE production is inhibited optimally when administered on day 3 and 4
same,Mean IgE ± SD,"[1]; 5 μg IP 4x daily days 3 and 4, day 8 (controls 14083-15890)",5076 ± 378 ng/mL
same,Mean IgE ± SD,"[1]; 5 μg IP 4x daily days 3 and 4, day -1 baseline before treatment",1292 ± 185 ng/mL
same,Serum IgE ± SD,"[1]; 5 μg IP on days 1,2, day 8 (control 19549)",9753 ± 4566 ng/mL
same,Serum IgE ± SD,"[1]; 5 μg IP on days 1,2, day 9 (control 17498)",10678 ± 8402 ng/mL
same,Serum IgE ± SD,"[1]; 5 μg IP on days 1,2, day 11 (control 5317)",2355 ± 709 ng/mL
same,Serum IgE ± SD,"[1]; 5 μg IP on days 1,2, day -1 baseline before treatment",1344 ± 135 ng/mL
same,Serum IgE ± SD,"[1]; 5 μg IP on days 2,3, day 8 (control 19549)",6233 ± 1948 ng/mL
same,Serum IgE ± SD,"[1]; 5 μg IP on days 2,3, day 9 (control 17498)",5328 ± 1811 ng/mL
same,Serum IgE ± SD,"[1]; 5 μg IP on days 2,3, day 11 (control 5317)",2139 ± 396 ng/mL
same,Serum IgE ± SD,"[1]; 5 μg IP on days 2,3, day -1 baseline before treatment",1293 ± 88 ng/mL
same,Serum IgE ± SD,"[1]; 5 μg IP on days 3,4, day 8 (control 19549)",4683 ± 1247 ng/mL
same,Serum IgE ± SD,"[1]; 5 μg IP on days 3,4, day 9 (control 17498)",4505 ± 1155 ng/mL
same,Serum IgE ± SD,"[1]; 5 μg IP on days 3,4, day 11 (control 5317)",1865 ± 361 ng/mL
same,Serum IgE ± SD,"[1]; 5 μg IP on days 3,4, day -1 baseline before treatment",1517 ± 166 ng/mL
same,Serum IgE ± SD,"[1]; 5 μg IP on days 4,5, day 8 (control 19549)",7969 ± 1821 ng/mL
same,Serum IgE ± SD,"[1]; 5 μg IP on days 4,5, day 9 (control 17498)",7145 ± 1763 ng/mL
same,Serum IgE ± SD,"[1]; 5 μg IP on days 4,5, day 11 (control 5317)",2316 ± 496 ng/mL
same,Serum IgE ± SD,"[1]; 5 μg IP on days 4,5, day -1 baseline before treatment",1644 ± 560 ng/mL
same,Serum IgE ± SD,"[1]; 10.0 μg IP 3x daily days 3 and 4, day 7",3223 ± 1717 ng/mL
same,Serum IgE ± SD,"[1]; 10.0 μg IP 3x daily days 3 and 4, day 8",1705 ± 859 ng/mL
same,Serum IgE ± SD,"[1]; 10.0 μg IP 3x daily days 3 and 4, day 9",1233 ± 601 ng/mL
same,Serum IgE ± SD,"[1]; 10.0 μg IP 3x daily days 3 and 4, day 11",1116 ± 276 ng/mL
same,Serum IgE ± SD,"[1]; 10.0 μg IP 3x daily days 3 and 4, day -1 baseline before treatment",849 ± 77 ng/mL
same,Serum IgE ± SD,"[1]; 10.0 μg IP 4x daily days 3 and 4, day 7",2092 ± 605 ng/mL
same,Serum IgE ± SD,"[1]; 10.0 μg IP 4x daily days 3 and 4, day 8",1884 ± 598 ng/mL
same,Mean IgE ± SD,"[1]; 10 μg IP 4x daily days 3 and 4, day 8 (controls 14083-15890)",2661 ± 504 ng/mL
same,Serum IgE ± SD,"[1]; 10.0 μg IP 4x daily days 3 and 4, day 9",1991 ± 834 ng/mL
same,Serum IgE ± SD,"[1]; 10.0 μg IP 4x daily days 3 and 4, day 11",1429 ± 361 ng/mL
same,Mean IgE ± SD,"[1]; 10 μg IP 4x daily days 3 and 4, day -1 baseline before treatment",1382 ± 135 ng/mL
same,Serum IgE ± SD,"[1]; 10.0 μg IP 4x daily days 3 and 4, day -1 baseline before treatment",1040 ± 211 ng/mL
same,Mean IgE ± SD,"[1]; 20 μg IP 4x daily days 3 and 4, day 8 (controls 14083-15890)",1608 ± 272 ng/mL
same,Mean IgE ± SD,"[1]; 20 μg IP 4x daily days 3 and 4, day -1 baseline before treatment",1308 ± 204 ng/mL
same,inhibition of de novo IgE synthesis in vivo,[1]; 20 μg days 3 and 4,de nouo IgE synthesis is inhibited
same,Serum IgE ± SD,"[1]; 40 μg IP 3x daily days 3 and 4, day 7",998 ± 146 ng/mL
same,Serum IgE ± SD,"[1]; 40 μg IP 3x daily days 3 and 4, day 8",1214 ± 181 ng/mL
same,Serum IgE ± SD,"[1]; 40 μg IP 3x daily days 3 and 4, day 9",1119 ± 135 ng/mL
same,Serum IgE ± SD,"[1]; 40 μg IP 3x daily days 3 and 4, day 11",1110 ± 249 ng/mL
same,Serum IgE ± SD,"[1]; 40 μg IP 3x daily days 3 and 4, day -1 baseline before treatment",822 ± 39 ng/mL
same,Serum IgE ± SD,"[1]; 40.0 μg IP 4x daily days 3 and 4, day 7",1037 ± 237 ng/mL
same,Serum IgE ± SD,"[1]; 40.0 μg IP 4x daily days 3 and 4, day 8",1152 ± 388 ng/mL
same,Mean IgE ± SD,"[1]; 40 μg IP 4x daily days 3 and 4, day 8 (controls 14083-15890)",1217 ± 344 ng/mL
same,Serum IgE ± SD,"[1]; 40.0 μg IP 4x daily days 3 and 4, day 9",870 ± 83 ng/mL
same,Serum IgE ± SD,"[1]; 40.0 μg IP 4x daily days 3 and 4, day 11",1028 ± 302 ng/mL
same,Mean IgE ± SD,"[1]; 40 μg IP 4x daily days 3 and 4, day -1 baseline before treatment",1114 ± 324 ng/mL
same,Serum IgE ± SD,"[1]; 40.0 μg IP 4x daily days 3 and 4, day -1 baseline before treatment",929 ± 97 ng/mL
same,inhibition of serum IgE synthesis,[1]; 2-40 μg IP days 3 and 4,reduces IgE production in a dose dependent manner
same,Mean IgE ± SD,"[1]; Group D, unstimulated (PBS on day 0), 40 μg (text: 20 μg) IP days 3 and 4, day 8",1026 ± 387 ng/mL
same,Mean IgE ± SD,"[1]; Group D, unstimulated (PBS on day 0), 40 μg (text: 20 μg) IP days 3 and 4, day -1 baseline before treatment",1289 ± 10 ng/mL
same,"IgE inhibition, 3 vs 4 times a day",[1]; IP days 3 and 4,equally effective at inhibiting IgE production in a dose dependent manner whether administered 3 times a day or 4 times a day
same,dosage at which maximum inhibition is obtained,[1]; IP days 3 and 4,40.0 µg
same,lowest dosage at which some inhibition is obtained,[1]; IP days 3 and 4,1.0 µg
same,IgE ± SD,[1]; day 8 (control 3539),1206 ± 119 ng/mL
same,IgE ± SD,[1]; day -1 baseline before treatment,1015 ± 70 ng/mL
same,ED50 IgE Inhibition,[2],1.0 μg/mouse/TID
same,TD50 at 8 h,[3],0.173 mg/kg
